Each structure is given as a SMILES string.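 Cells were grown in 96-well plates and exposed to each compound for 48 hours at five concentrations; endpoints were interpolated linearly between bracketing concentrations, or set to the highest concentration if not reached. Definition used: TGI = concentration required for complete inhibition of growth.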

The results in this text go back to PubChem BioAssay (NCI).

Among the test systems are HCT-116 colon; HCC-2998 colon; NCI-H23 lung; K-562 leukemia; SF-295 CNS; HL-60(TB) leukemia; NCI/ADR-RES ovarian; MOLT-4 leukemia; SW-620 colon; SK-MEL-2 melanoma; SK-MEL-28 melanoma; COLO 205 colon; SK-OV-3 ovarian; CCRF-CEM leukemia; SN12C renal; SNB-19 CNS; RXF 393 renal; OVCAR-8 ovarian; HT29 colon; OVCAR-3 ovarian.
Holding throughout (experiment): growth of human tumour cells (NCI), 48 h

With `C[N+](C)(C)/N=C/c1ccc(O)c(O)c1`, the TGI in the assay with HCT-116 colon, in the assay with HCC-2998 colon, in the assay on NCI-H23 lung, in the assay with K-562 leukemia, in the assay on SF-295 CNS and in the assay with HL-60(TB) leukemia was greater than 100 µM throughout. Further, the TGI in the assay with NCI/ADR-RES ovarian is greater than 100 µM; with MOLT-4 leukemia it was greater than 100 µM; in the assay on SW-620 colon, greater than 100 µM; in the assay on SK-MEL-2 melanoma it was greater than 100 µM; in the assay with SK-MEL-28 melanoma it was greater than 96.4 µM; with COLO 205 colon, greater than 100 µM. Further, the TGI in the assay on SK-OV-3 ovarian, in the assay on CCRF-CEM leukemia, with SN12C renal, in the assay on SNB-19 CNS, in the assay with RXF 393 renal and with OVCAR-8 ovarian was greater than 100 µM in each case. For the same molecule, the TGI in the assay with HT29 colon and in the assay on OVCAR-3 ovarian was greater than 100 µM throughout.
Take `COc1cccc(C2ON=C(c3ccccc3)N2C23CC4CC(CC(C4)C2)C3)c1` (stereo not given): the TGI in the assay on HCT-116 colon, in the assay on HCC-2998 colon, in the assay with NCI-H23 lung, with K-562 leukemia, in the assay with SF-295 CNS and in the assay with HL-60(TB) leukemia was greater than 10 µM throughout. For the same molecule, the TGI with NCI/ADR-RES ovarian, in the assay on MOLT-4 leukemia, in the assay with SW-620 colon, in the assay on SK-MEL-2 melanoma, in the assay on SK-MEL-28 melanoma and in the assay with COLO 205 colon was greater than 10 µM in each case. For the same molecule, the TGI in the assay with SK-OV-3 ovarian, with CCRF-CEM leukemia, with SN12C renal, in the assay on SNB-19 CNS, with RXF 393 renal and with OVCAR-8 ovarian was greater than 10 µM each time. The TGI with HT29 colon and in the assay with OVCAR-3 ovarian was greater than 10 µM throughout.
Regarding `COC1(OC)N=C(N)C2(C#N)C3(C(=O)N(C(C)C)N=C3C)C12C#N` (stereo not given), the TGI in the assay with HCT-116 colon, in the assay on HCC-2998 colon, in the assay on NCI-H23 lung, in the assay on K-562 leukemia, in the assay with SF-295 CNS and in the assay with HL-60(TB) leukemia was greater than 100 µM each time. In addition, the TGI with NCI/ADR-RES ovarian, in the assay on MOLT-4 leukemia, in the assay with SW-620 colon, in the assay with SK-MEL-2 melanoma, with SK-MEL-28 melanoma and in the assay on COLO 205 colon was greater than 100 µM in each case. Besides, the TGI in the assay with SK-OV-3 ovarian, in the assay on CCRF-CEM leukemia, in the assay on SN12C renal, in the assay with SNB-19 CNS, in the assay on RXF 393 renal and in the assay with OVCAR-8 ovarian was greater than 100 µM in each case. Besides, the TGI with HT29 colon and in the assay on OVCAR-3 ovarian was greater than 100 µM each time.
As to `COc1ccc(/C=C/C(=N/NC(=O)N/N=C(/C=C/c2ccc(OC)cc2)C(C)(C)CN2CCCCC2)C(C)(C)CN2CCCCC2)cc1`, the TGI with HCT-116 colon is 2.6 µM; in the assay on HCC-2998 colon it was 3.42 µM; with NCI-H23 lung it was greater than 10 µM; in the assay with K-562 leukemia it was 1.89 µM; in the assay with SF-295 CNS, 3.45 µM; with HL-60(TB) leukemia, 3.22 µM. For the same molecule, the TGI was 4.33 µM in the assay with NCI/ADR-RES ovarian; 4.18 µM in the assay on MOLT-4 leukemia; 4.48 µM with SW-620 colon; 3.1 µM in the assay with SK-MEL-2 melanoma; 2.92 µM in the assay on SK-MEL-28 melanoma; 3.1 µM in the assay with COLO 205 colon. Also, the TGI in the assay with SK-OV-3 ovarian worked out at 3.49 µM; with CCRF-CEM leukemia, 3.39 µM; with SN12C renal it was 5.83 µM; in the assay with SNB-19 CNS, 6.4 µM; with RXF 393 renal, 2.72 µM; with OVCAR-8 ovarian, 3.4 µM. The values for the TGI in the assay on HT29 colon and in the assay with OVCAR-3 ovarian were 3.11 µM and 3.81 µM, respectively.
For `Cn1cc(S(=O)(=O)NC(=O)Nc2ccc(Cl)cc2)c2ccccc21`, the TGI with HCT-116 colon, with HCC-2998 colon, in the assay on NCI-H23 lung, with K-562 leukemia, in the assay on SF-295 CNS and in the assay with HL-60(TB) leukemia was greater than 100 µM each time. The TGI in the assay with NCI/ADR-RES ovarian, in the assay on MOLT-4 leukemia, in the assay on SW-620 colon, in the assay on SK-MEL-2 melanoma, in the assay on SK-MEL-28 melanoma and with COLO 205 colon was greater than 100 µM in each case. In addition, the TGI in the assay on SK-OV-3 ovarian, in the assay with CCRF-CEM leukemia, in the assay on SN12C renal, with SNB-19 CNS, in the assay with RXF 393 renal and in the assay on OVCAR-8 ovarian was greater than 100 µM each time. Further, the TGI in the assay on HT29 colon and in the assay on OVCAR-3 ovarian was greater than 100 µM throughout.
